Results as given in article PMC12299477 (Viruses, 2025).
Read-outs that look alike come from different tables or passages of the source.

How the values were obtained:
[1] = tested on: RSV-A2; test: Virus inhibition assay (plaque reduction), RSV-A2 on Hep-2 cells; format: cell-based; settings: human respiratory syncytial virus; for activity at 0.3 µM / activity at 3 µM / activity at 33 µM: HEp-2, 72 h, read-out: Residual Virus Infectivity (%) RSV-A2
[2] = tested on: MDCK cells; test: Cytotoxic effect microscopically visible in the IFV-A H1N1 screening; format: cell-based, canine; design: key: -: Cytotoxic effect microscopically visible; settings: 33 µM
[3] = tested on: Hep-2 cells; test: Cytotoxic effect microscopically visible in the RSV-A2 screening; format: cell-based, human; design: key: -: Cytotoxic effect microscopically visible
[4] = tested on: MRC-5 cells; test: Cytotoxic effect microscopically visible in the HCoV-OC43 screening; format: cell-based, human; design: key: -: Cytotoxic effect microscopically visible; settings: 33 µM
[5] = tested on: HCoV-OC43; test: Virus inhibition assay (focus reduction), HCoV-OC43 on MRC-5 cells; format: cell-based, human coronavirus; settings: for EC50: Betacoronavirus 1, OC43, MRC5, read-out: EC50 (µM) (95% CI); for activity at 0.3 µM / activity at 3 µM / activity at 33 µM: Betacoronavirus 1, OC43, MRC5, 20 h, read-out: Residual Virus Infectivity (%) HCoV-OC43
[6] = Cell viability MTS assay on MRC-5 cells; format: cell-based; settings: human, same conditions as HCoV inhibition assay, read-out: CC50 (µM) (95% CI)
[7] = in vitro; settings: dog
[8] = tested on: IFV-A H1N1; test: Virus inhibition assay (focus reduction), IFV-A H1N1 on MDCK cells; format: cell-based; settings: Influenza A virus, read-out: EC50 (µM) (95% CI)
[9] = Cell viability MTS assay on Hep-2 cells; settings: human
[10] = in vitro; settings: human
[11] = Cell viability MTS assay on MDCK cells; settings: dog
[12] = RSV-A2, Hep-2 cells, read-out: EC50 (µM) (95% CI)

With `O=C(NCc1ccccc1)c1cc(-c2ccccc2)c(=O)n2c1sc1ccc(OC3CCCCC3)cc12` [Compound 3] the activity at 0.3 µM [1] was 100%, the activity at 3 µM [1] was 93% and the activity at 33 µM [1] was 67%.
For `CCN(CC)CCOc1ccc2sc3c(C(=O)Oc4ccc(S(N)(=O)=O)cc4)cc(-c4ccccc4)c(=O)n3c2c1` [Compound 28], the “Cytotoxic effect microscopically visible” value [2] was “-”, the “Cytotoxic effect microscopically visible” value ([3]; 33 µM) was “-” and the “Cytotoxic effect microscopically visible” value [4] was “-”.
For `O=C(N[C@@H](Cc1ccc(O)cc1)C(=O)O)c1cc(-c2ccc(F)cc2)c(=O)n2c1sc1ccc(OC3CCCCC3)cc12` [Compound 14], the EC50 [5] was 1.09 µM, the “Cytotoxic effect microscopically visible” value ([3]; 33 µM) was “-” and the CC50 [6] was 62.2 µM.
In the case of `O=C(N[C@@H](Cc1ccc(O)cc1)C(=O)O)c1cc(-c2ccc(Cl)cc2)c(=O)n2c1sc1ccc(OC3CCCCC3)cc12` [Compound 9], the EC50 [5] is reported as 1.2 µM, the “Cytotoxic effect microscopically visible” value ([3]; 33 µM) is reported as “-” and the CC50 [6] is reported as 55.6 µM.
For `NC(=O)CCNC(=O)c1cc(-c2ccccc2)c(=O)n2c1sc1ccc(OC3CCCCC3)cc12` [Compound 12], the “Cytotoxic effect microscopically visible” value ([3]; 33 µM) was “-”.
`CCOC(=O)C1=C[C@@H](OC(CC)CC)[C@H](NC(C)=O)[C@@H](N)C1` [oseltamivir, reference compound] gave a CC50 [7] of over 200 µM and an EC50 [8] of 0.17 µM.
With `O=C(O)CCNC(=O)c1cc(-c2ccccc2)c(=O)n2c1sc1ccc(OC3CCCCC3)cc12` [Compound 10] the EC50 [5] was 7.97 µM, the “Cytotoxic effect microscopically visible” value ([3]; 33 µM) was “-” and the CC50 [6] was over 200 µM.
For `O=C(N[C@@H](Cc1ccc(O)cc1)C(=O)O)c1cc(-c2ccccc2)c(=O)n2c1sc1cc(OC3CCCCC3)ccc12` [Compound 5], the “Cytotoxic effect microscopically visible” value ([3]; 33 µM) was “-” and the “Cytotoxic effect microscopically visible” value [4] was “-”.
With `COc1ccc(-c2cc(C(=O)N[C@@H](Cc3ccc(O)cc3)C(=O)O)c3sc4ccc(OC5CCCCC5)cc4n3c2=O)cc1F` [Compound 2] the activity at 0.3 µM [1] was 100%, the activity at 3 µM [1] was 44% and the activity at 0.3 µM [5] was 95%. The activity at 3 µM [5] was 54%, the activity at 33 µM [5] was 1% and the EC50 [5] was 4.67 µM. The “Cytotoxic effect microscopically visible” value ([3]; 33 µM) was “-” and the CC50 [6] was 82.9 µM.
`O=C(NCc1ccc(O)cc1)c1cc(-c2ccccc2)c(=O)n2c1sc1ccc(OC3CCCCC3)cc12` [Compound 13] gave an activity at 0.3 µM [1] of 100%, an activity at 3 µM [1] of 15% and an activity at 33 µM [1] of 0%. The EC50 ([1]; HEp-2, read-out: EC50 (µM) (95% CI)) was 2.87 µM, the CC50 [9] was over 200 µM and the activity at 0.3 µM [5] was 100%. The activity at 3 µM [5] was 100% and the activity at 33 µM [5] was 64%.
For `O=C(NCC1(C(=O)O)CC1)c1cc(-c2ccccc2)c(=O)n2c1sc1ccc(OC3CCCCC3)cc12` [Compound 4], the “Cytotoxic effect microscopically visible” value ([3]; 33 µM) was “-” and the “Cytotoxic effect microscopically visible” value [4] was “-”.
In the case of `O=C(N[C@@H](CO)C(=O)O)c1cc(-c2ccccc2)c(=O)n2c1sc1ccc(OC3CCCCC3)cc12` [Compound 8], the activity at 0.3 µM [1] is reported as 100%, the activity at 3 µM [1] is reported as 100% and the activity at 33 µM [1] is reported as 98%.
For `CCN(CC)CCCC(C)Nc1ccnc2cc(Cl)ccc12` (centres unmarked) [chloroquine, reference compound], the EC50 [5] was 0.19 µM.
With `O=C(N[C@@H](Cc1ccccc1)C(=O)O)c1cc(-c2ccccc2)c(=O)n2c1sc1ccc(OC3CCCCC3)cc12` [Compound 26] the “Cytotoxic effect microscopically visible” value ([3]; 33 µM) was “-” and the “Cytotoxic effect microscopically visible” value [4] was “-”.
For `CC(C)C(CC(=O)O)NC(=O)c1cc(-c2ccccc2)c(=O)n2c1sc1ccc(OC3CCCCC3)cc12` (centres unmarked) [Compound 19], the “Cytotoxic effect microscopically visible” value [2] was “-”, the “Cytotoxic effect microscopically visible” value ([3]; 33 µM) was “-” and the “Cytotoxic effect microscopically visible” value [4] was “-”.
In the case of `O=C(c1cc(-c2ccccc2)c(=O)n2c1sc1ccc(OC3CCCCC3)cc12)N1CCC[C@@H](O)C1` [Compound 11], the “Cytotoxic effect microscopically visible” value [2] is reported as “-”, the “Cytotoxic effect microscopically visible” value ([3]; 3 µM) is reported as “-” and the “Cytotoxic effect microscopically visible” value ([3]; 33 µM) is reported as “-”. The “Cytotoxic effect microscopically visible” value [4] was “-”.
In the case of `O=C(N[C@@H](Cc1ccc(O)cc1)C(=O)O)c1cc(-c2ccccc2F)c(=O)n2c1sc1ccc(OC3CCCCC3)cc12` [Compound 15], the activity at 0.3 µM [1] is reported as 86%, the activity at 3 µM [1] is reported as 85% and the activity at 33 µM [1] is reported as 40%.
In the case of `O=C(O)CC(NC(=O)c1cc(-c2ccccc2)c(=O)n2c1sc1ccc(OC3CCCCC3)cc12)c1ccccc1` (centres unmarked) [Compound 6], the “Cytotoxic effect microscopically visible” value ([3]; 3 µM) is reported as “-”, the “Cytotoxic effect microscopically visible” value ([3]; 33 µM) is reported as “-” and the “Cytotoxic effect microscopically visible” value [4] is reported as “-”.
`O=C(N[C@@H](Cc1ccc(O)cc1)C(=O)O)c1cc(-c2cccc(F)c2)c(=O)n2c1sc1ccc(OC3CCCCC3)cc12` [Compound 16] gave an EC50 [1, 12] of 18.6 µM, a CC50 [9] of 72.9 µM and an EC50 [5] of 4.22 µM. It also gave a CC50 [6] of 84.7 µM.
For `NC(=O)c1ncn([C@@H]2O[C@H](CO)[C@@H](O)[C@H]2O)n1` [ribavirin, reference compound], the CC50 [10] was over 2400 µM and the EC50 [1, 12] was 37 µM.
For `NS(=O)(=O)c1ccc(OC(=O)c2ccc(=O)n3c2sc2ccc(OC4CCCCC4)cc23)cc1` [Compound 24], the “Cytotoxic effect microscopically visible” value [2] was “-”, the “Cytotoxic effect microscopically visible” value ([3]; 33 µM) was “-” and the “Cytotoxic effect microscopically visible” value [4] was “-”.
In the case of `O=C(N[C@@H](Cc1ccc(O)cc1)C(=O)O)c1cc(-c2cccs2)c(=O)n2c1sc1ccc(OC3CCCCC3)cc12` [Compound 25], the CC50 [11] is reported as 86.1 µM, the EC50 [5] is reported as 0.29 µM and the “Cytotoxic effect microscopically visible” value ([3]; 33 µM) is reported as “-”. It also gave a CC50 [6] of 16.5 µM and an EC50 [8] of 13.7 µM.
With `C[C@H](CO)NC(=O)c1cc(-c2ccccc2)c(=O)n2c1sc1ccc(OC3CCCCC3)cc12` [Compound 7] the “Cytotoxic effect microscopically visible” value [2] was “-”, the “Cytotoxic effect microscopically visible” value ([3]; 3 µM) was “-” and the “Cytotoxic effect microscopically visible” value ([3]; 33 µM) was “-”. For the same compound, the “Cytotoxic effect microscopically visible” value [4] was “-”.
With `NS(=O)(=O)c1ccc(OC(=O)c2cc(-c3ccccc3)c(=O)n3c2sc2ccc(OC4CCCCC4)cc23)cc1` [Compound 23] the EC50 [5] was 0.23 µM, the “Cytotoxic effect microscopically visible” value ([3]; 33 µM) was “-” and the CC50 [6] was 18.2 µM.
In the case of `O=C(O)C1CCN(C(=O)c2cc(-c3ccccc3)c(=O)n3c2sc2ccc(OC4CCCCC4)cc23)C1` (centres unmarked) [Compound 20], the activity at 0.3 µM [1] is reported as 100%, the activity at 3 µM [1] is reported as 100% and the activity at 33 µM [1] is reported as 100%.
With `CC(CC(=O)O)NC(=O)c1cc(-c2ccccc2)c(=O)n2c1sc1ccc(OC3CCCCC3)cc12` (centres unmarked) [Compound 21] the “Cytotoxic effect microscopically visible” value [2] was “-”, the “Cytotoxic effect microscopically visible” value ([3]; 33 µM) was “-” and the “Cytotoxic effect microscopically visible” value [4] was “-”.
With `CCN(CC)CCOc1ccc(-c2cc(C(=O)Oc3ccc(S(N)(=O)=O)cc3)c3sc4ccc(OC5CCCCC5)cc4n3c2=O)cc1` [Compound 22] the “Cytotoxic effect microscopically visible” value [2] was “-” and the “Cytotoxic effect microscopically visible” value ([3]; 33 µM) was “-”.
With `NS(=O)(=O)c1ccc(OC(=O)c2cc(NCCN3CCOCC3)c(=O)n3c2sc2ccc(OC4CCCCC4)cc23)cc1` [Compound 29] the “Cytotoxic effect microscopically visible” value [2] was “-”, the “Cytotoxic effect microscopically visible” value ([3]; 33 µM) was “-” and the “Cytotoxic effect microscopically visible” value [4] was “-”.
For `O=C(N[C@@H](Cc1ccc(O)cc1)C(=O)O)c1ccc(=O)n2c1sc1ccc(OC3CCCCC3)cc12` [Compound 27], the EC50 [5] was 10 µM and the CC50 [6] was 189 µM.
In the case of `O=C(N[C@@H](Cc1ccc(O)cc1)C(=O)O)c1cc(-c2ccccc2)c(=O)n2c1sc1ccc(OC3CCCC3)cc12` [Compound 17], the “Cytotoxic effect microscopically visible” value ([3]; 33 µM) is reported as “-”.
